Measurements reported in patent US12599588B2, “Inhibitor for V-ATPase activity, antibacterial agent, medicine, antibacterial method and screening method” (Japan Science and Technology Agency, priority 2019, dated 2026).
Entries after “also recorded” stand apart in the source; their conditions may differ.

What was measured:
[1] = target: T1, V-ATPase (purified from enterococci or recombinant E. coli) (Enterococcus hirae, UniProt P43439+P43457); assay: ATPase activity measurement (molybdenum blue method, primary screening); format: biochemical
T1 construct: made in house; host or cells: Enterococcus hirae (native) or recombinant E. coli
Procedure: The ATPase activity can be measured by a molybdenum blue method for measuring absorbance of the inorganic phosphoric acid generated by hydrolysis of ATP. As the reaction conditions, conditions for measuring the ATPase activity can be adopted. As the buffer solution used in the reaction, Tris-HCl buffer can be used. The reaction time is usually 10 to 60 minutes, but can be appropriately adjusted depending on the air temperature or the like. The reaction of V-ATPase is terminated with the addition of a surfactant such as sodium dodecyl sulfate (SDS), and into which a color-developing liquid (such as ferrous sulfate) is added to give a color, and then the concentration of the inorganic phosphoric acid can be calculated by the measurement of the absorbance at a wavelength of 650 nm.
From the concentration of inorganic phosphoric acid calculated above, the inhibition rate of the V-ATPase reaction can be calculated. That is, a graph is created in which the inhibition rate is plotted on the vertical axis and the concentration of compound is plotted on the horizontal axis, and the concentration (IC50) at which the inhibition rate becomes 50% is determined. As the concentration of compound at which IC50 is obtained becomes lower, a higher V-ATPase inhibitory effect is exerted with a small amount, and accordingly, the compound can be taken as a candidate compound for the inhibitor for V-ATPase activity.
The V-ATPase was prepared by the method disclosed in the following papers. • Paper 1: Takeshi Murata, et. al, “Purification and Reconstitution of Na^+-translocating Vacuolar ATPase from Enterococcus hirae”, J. Biol. Chem. 272, 24885-24890 (1997) • Paper 2: Takeshi Murata, et. al, “Torque Generation of Enterococcus hirae V-ATPase”, J. Biol. Chem. 289, 31212-31223 (2014)
ATPase activity measurement was conducted by a molybdenum blue method that quantifies the inorganic phosphoric acid generated by hydrolysis of ATP with the use of absorbance measurement. The measurement was conducted in a 96-well plate, and 0.05% DDM (n-dodecyl-β-D-maltoside), 10 μg/mL of V-ATPase (purified from enterococci or recombinant E. coli), and 20 μM of a compound were added into a buffer (100 mM Tris-HCl at pH 8.5, 100 mM NaCl, 5 mM MgSO4, 10% glycerol). Into the mixture obtained above, ATP was added so as to be 5 mM, the whole amount was set to 100 μL, the reaction was started while stirring the mixture with a stirrer, and the reaction time was set to 30 minutes. Since the ATPase activity changes largely depending on the reaction temperature, the reaction time was adjusted within the range of 10 to 60 minutes corresponding to the air temperature on the day of the experiment. With the addition of 50 μL of 20% SDS, the V-ATPase was denatured and the reaction was terminated, and into the resultant mixture, 75 μL of color-developing liquid (5% ferrous sulfate, 1.6% ammonium molybdate, and 1 M sulfuric acid) was added to give a color. Immediately, the absorbance at a wavelength of 650 nm was measured by using a plate reader. Four kinds of KH2PO4 aqueous solutions of 0.2 mM, 0.5 mM, 1.0 mM, and 1.5 mM were reacted with MQ (ultrapure water) in the same experiment system, and then the activity of V-ATPase was measured by determining the concentration of generated inorganic phosphoric acid with the use of a created calibration curve. In this regard, a compound that had inhibited 50% or more of the activity of V-ATPase was diluted stepwisely so as to have a concentration of 10 μM, 5 μM, 2 μM, 1 μM, 500 nM, 200 nM, 100 nM, and 50 nM, and the measurement similar to the above was conducted.
From the results of the above measurement of ATPase activity, the inhibition rate was calculated comparing the decrease in the activity by assuming the activity under the condition of no compound addition as 100. A graph was created in which the inhibition rate was plotted on the vertical axis and the concentration of compound was plotted on the horizontal axis (FIG. 2). […]

[2] = test system: enterococci (Enterococcus hirae); assay: Growth experiment of enterococci (secondary screening), OD600 at pH 7.0 and pH 8.5; format: cell-based; parameters: Growth inhibition rate (%): concentration or dose not given beside the values; conditions: for Specificity: growth inhibition at pH 8.5 versus pH 7.0
Procedure: In the culture of enterococci (Enterococcus hirae), a culture medium in which the Na^+ concentration had been adjusted by adding a buffer solution using 2% tryptone and 1% yeast extract as the base was used. In a case of adding glucose, glucose prepared in a 50% solution was added so as to be 1% into the culture medium when the culture medium was used. The whole amount 200 μL was cultured using a 96-well plate, and OD600 was measured every hour by using a plate reader. By using culture media at pH 7.0 and pH 8.5, the effect of pH on the growth was observed. In culture of bacteria, the pH often fluctuates largely due to the decomposition of the sugars required for the growth, and it is extremely important to maintain a constant pH in this experiment, and therefore, the pH was maintained constant with the addition of a buffer suitable for each pH. Since the V-ATPase is expressed only under an alkaline condition, the growth inhibition observed with the addition of an inhibitor is largely dependent on the pH.
IC50 and the like of the above 24 kinds of compounds are described in the following table. […] Furthermore, with respect to the symbol “n.a.”, a compound having a growth inhibition rate of 60% or more at pH 7.0 is determined that there was the growth inhibition. In addition, the growth inhibition rate of a compound having no clear inhibition is also recorded for reference.

[3] = test system: Enterococcus faecalis (vancomycin-resistant enterococci, VRE); assay: Growth inhibition of pathogenic bacteria, VRE E. faecalis; format: cell-based; conditions: pH 7.0, pH 7.5, pH 8.0; OD600
Procedure: (§1) As the pathogenic bacteria, Enterococcus faecalis and Enterococcus faecium that are vancomycin-resistant enterococci (VRE), and Clostridium difficile that leads to deterioration of intestinal environment and is resistant to multiple drugs were prepared. The VRE were cultured by using culture media at pH 7.0, pH 7.5, and pH 8.0, the C. difficile was cultured by using culture media at pH 6.5, pH 7.0, and pH 7.5, and the difference in the number of bacteria was confirmed by measuring OD600.
(§2) The data of pH 7.0, pH 7.5, and pH 8.0 are shown in order from the top of FIG. 6. […] The data of pH 6.5, pH 7.0, and pH 7.5 are shown in order from the top of FIG. 7.

[4] = test system: Enterococcus faecium (vancomycin-resistant enterococci, VRE); assay: Growth inhibition of pathogenic bacteria, VRE E. faecium; format: cell-based; conditions: pH 7.0, pH 7.5, pH 8.0; OD600
Procedure: as §1, §2

[5] = test system: Clostridium difficile; assay: Growth inhibition of pathogenic bacteria, C. difficile; format: cell-based; conditions: pH 6.5, pH 7.0, pH 7.5; OD600
Procedure: as §1, §2

[6] = Oral administration to mice (intestinal environment), toxicity observation; format: in vivo; conditions: 20 mM suspension, 0.5 ml orally once a day, five days
Procedure: To each of four mice, 0.5 ml of the suspension was orally administered once a day, and on five days after the start of administration, the mice were dissected and the feces and intestinal tract contents were collected, and the intestinal pH and sodium ion concentration were measured.

[7] = test system: E. faecium of VRE; assay: Test in VRE-infected mice, number of live VRE in the intestine; format: in vivo; conditions: antibiotic-treated mice infected with E. faecium VRE
Procedure: Mice treated with antibiotics were infected with E. faecium of VRE, and V-161 was administered to the mice.

Cc1ccc2nc(-c3ccc(N(C)C)cc3)[nH]c2c1 [Compound V-161, N,N-dimethyl-4-(6-methyl-1H-benzo[d]imidazol-2-yl)aniline]
IC50 ([1]; IC50 (nM), Table 2, inhibition of V-ATPase ATPase activity, pH 8.5 buffer): 85 nM
IC50 ([1]; IC50 (nM), Table 3, 2-phenyl benzimidazole derivatives): 85 nM
IC50 ([1]; high affinity for V-ATPase (IC50), unit inferred): ≤ 400 nM
non-specific inhibition / non-specific bond [2]: no non-specific inhibition
Growth inhibition rate (%) ([2]; Table 2, E. hirae growth, pH not stated (media pH 7.0 and pH 8.5)): 88.7%
Specificity ([2]; Table 2): + (there was no growth inhibition at pH 7.0 but was the growth inhibition at pH 8.5)
Growth inhibition rate (%) ([2]; Table 3, 2-phenyl benzimidazole derivatives): 88.7%
Specificity ([2]; Table 3): + (there was no growth inhibition at pH 7.0 but was the growth inhibition at pH 8.5)
growth of E. faecalis (VRE) (FIG. 6) [3]: inhibited in a pH-dependent manner
growth of E. faecium (VRE) (FIG. 6) [4]: inhibited in a pH-dependent manner; also recorded: more strongly affected by the V-161 than E. faecalis
growth of C. difficile (FIG. 7) [5]: inhibited even under a neutral or acidic condition
toxicity in mice [6]: toxicity was not observed
decrease of VRE in the cecum, large intestine, and feces versus controls (FIG. 10) ([7]; cecum, large intestine, feces): around 50%
decrease of VRE in the small intestine versus controls (FIG. 10) ([7]; small intestine): 97%
